Experimental findings from patent US20240109865A1, “INDAZOLE COMPOUNDS AS KINASE INHIBITORS” (TYRA BIOSCIENCES, INC., priority 2020, published 2024) are described below.

Common to all, as to assay: Kinase assay, binding constants (Kd), kinase-tagged T7 phage, qPCR
For one assay, the target named is FGFR2 (Homo sapiens (Human), UniProt P21802). In short, it runs like this:
(§1)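 Using T7 phage lysates from BL21-derived E. coli, compounds at 0.9% final DMSO competed for kinase binding to ligand-bearing magnetic beads. After elution, qPCR measured remaining kinase, and Kds were fitted by non-linear least squares with the Hill slope fixed at −1.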

Another assay addresses FGFR3 (V555M) (Homo sapiens (Human), UniProt P22607, V555M). As to conditions: V555M mutant. In short, it runs like this: as §1
A further assay has as its target FGFR3 (Homo sapiens (Human), UniProt P22607). In short, it runs like this:
as §1

For the next assay, the target named is FGFR4 (Homo sapiens (Human), UniProt P22455). In short, it runs like this: as §1
FGFR4, sequence (P22455 22-802): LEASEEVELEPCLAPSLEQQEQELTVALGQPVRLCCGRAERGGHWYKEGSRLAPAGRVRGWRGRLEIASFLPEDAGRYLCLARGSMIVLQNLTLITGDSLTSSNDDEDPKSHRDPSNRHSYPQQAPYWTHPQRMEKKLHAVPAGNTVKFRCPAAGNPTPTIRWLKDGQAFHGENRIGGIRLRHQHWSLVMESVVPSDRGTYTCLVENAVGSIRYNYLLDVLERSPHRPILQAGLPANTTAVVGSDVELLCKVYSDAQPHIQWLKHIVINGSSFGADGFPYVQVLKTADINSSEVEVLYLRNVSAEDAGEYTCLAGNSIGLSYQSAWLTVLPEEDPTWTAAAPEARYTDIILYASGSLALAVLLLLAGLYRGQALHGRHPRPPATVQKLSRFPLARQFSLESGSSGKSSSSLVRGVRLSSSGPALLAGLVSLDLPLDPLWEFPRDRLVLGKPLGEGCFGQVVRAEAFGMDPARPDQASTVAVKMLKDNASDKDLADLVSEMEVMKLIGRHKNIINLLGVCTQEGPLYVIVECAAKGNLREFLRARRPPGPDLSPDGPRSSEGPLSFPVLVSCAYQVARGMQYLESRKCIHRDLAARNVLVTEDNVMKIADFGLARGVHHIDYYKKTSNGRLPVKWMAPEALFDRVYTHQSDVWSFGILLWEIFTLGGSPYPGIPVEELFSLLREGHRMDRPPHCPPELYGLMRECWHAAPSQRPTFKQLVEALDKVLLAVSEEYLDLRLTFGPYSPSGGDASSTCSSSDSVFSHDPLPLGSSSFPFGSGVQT
A further assay deals with FGFR1 (Homo sapiens (Human), UniProt P11362). An outline of the steps: as §1
FGFR1, sequence (P11362 22-822): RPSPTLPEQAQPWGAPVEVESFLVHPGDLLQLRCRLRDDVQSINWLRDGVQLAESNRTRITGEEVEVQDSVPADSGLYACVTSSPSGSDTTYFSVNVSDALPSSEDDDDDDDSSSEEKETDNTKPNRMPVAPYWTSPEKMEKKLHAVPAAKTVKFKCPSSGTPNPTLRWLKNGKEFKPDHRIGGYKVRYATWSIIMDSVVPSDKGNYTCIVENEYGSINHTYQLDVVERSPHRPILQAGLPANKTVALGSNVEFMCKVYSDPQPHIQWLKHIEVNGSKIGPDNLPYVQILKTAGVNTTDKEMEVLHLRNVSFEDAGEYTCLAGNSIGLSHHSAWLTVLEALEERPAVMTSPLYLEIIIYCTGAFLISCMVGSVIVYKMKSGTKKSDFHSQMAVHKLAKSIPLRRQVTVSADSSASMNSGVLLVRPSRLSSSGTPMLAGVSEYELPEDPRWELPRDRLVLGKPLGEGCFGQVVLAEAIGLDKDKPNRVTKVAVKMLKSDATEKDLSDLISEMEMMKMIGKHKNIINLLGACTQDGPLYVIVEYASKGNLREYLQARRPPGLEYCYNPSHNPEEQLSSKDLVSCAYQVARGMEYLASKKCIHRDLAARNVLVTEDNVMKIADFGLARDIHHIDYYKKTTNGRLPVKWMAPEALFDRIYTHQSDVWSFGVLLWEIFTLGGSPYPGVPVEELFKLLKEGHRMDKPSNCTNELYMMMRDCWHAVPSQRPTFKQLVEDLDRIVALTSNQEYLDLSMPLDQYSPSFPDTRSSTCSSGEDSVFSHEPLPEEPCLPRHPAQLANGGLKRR

A value given as a limit tells only on which side of the number the result lay.

FGFR3 (V555M), sequence (P22607 23-806 V555M): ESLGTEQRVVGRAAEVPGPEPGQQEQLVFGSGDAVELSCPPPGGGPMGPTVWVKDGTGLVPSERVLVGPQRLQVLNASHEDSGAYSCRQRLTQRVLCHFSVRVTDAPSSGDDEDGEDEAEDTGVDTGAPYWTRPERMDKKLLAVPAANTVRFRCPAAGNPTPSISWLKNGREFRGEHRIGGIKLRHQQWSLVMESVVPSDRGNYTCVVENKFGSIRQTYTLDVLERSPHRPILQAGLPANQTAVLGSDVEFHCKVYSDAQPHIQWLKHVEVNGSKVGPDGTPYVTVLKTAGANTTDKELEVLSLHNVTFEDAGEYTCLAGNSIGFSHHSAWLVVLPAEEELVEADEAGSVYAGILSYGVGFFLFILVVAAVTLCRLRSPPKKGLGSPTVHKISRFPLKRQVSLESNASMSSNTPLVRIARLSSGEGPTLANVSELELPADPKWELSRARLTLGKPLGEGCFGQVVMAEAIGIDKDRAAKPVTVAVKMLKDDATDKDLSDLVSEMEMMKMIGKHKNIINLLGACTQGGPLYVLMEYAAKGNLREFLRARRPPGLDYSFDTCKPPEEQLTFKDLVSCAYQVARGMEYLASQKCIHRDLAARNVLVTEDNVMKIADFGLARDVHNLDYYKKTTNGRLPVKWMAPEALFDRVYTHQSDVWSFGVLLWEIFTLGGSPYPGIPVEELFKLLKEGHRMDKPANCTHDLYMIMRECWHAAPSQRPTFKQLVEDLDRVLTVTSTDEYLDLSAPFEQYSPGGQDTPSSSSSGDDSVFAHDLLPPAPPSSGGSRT
FGFR2, sequence (P21802 22-821): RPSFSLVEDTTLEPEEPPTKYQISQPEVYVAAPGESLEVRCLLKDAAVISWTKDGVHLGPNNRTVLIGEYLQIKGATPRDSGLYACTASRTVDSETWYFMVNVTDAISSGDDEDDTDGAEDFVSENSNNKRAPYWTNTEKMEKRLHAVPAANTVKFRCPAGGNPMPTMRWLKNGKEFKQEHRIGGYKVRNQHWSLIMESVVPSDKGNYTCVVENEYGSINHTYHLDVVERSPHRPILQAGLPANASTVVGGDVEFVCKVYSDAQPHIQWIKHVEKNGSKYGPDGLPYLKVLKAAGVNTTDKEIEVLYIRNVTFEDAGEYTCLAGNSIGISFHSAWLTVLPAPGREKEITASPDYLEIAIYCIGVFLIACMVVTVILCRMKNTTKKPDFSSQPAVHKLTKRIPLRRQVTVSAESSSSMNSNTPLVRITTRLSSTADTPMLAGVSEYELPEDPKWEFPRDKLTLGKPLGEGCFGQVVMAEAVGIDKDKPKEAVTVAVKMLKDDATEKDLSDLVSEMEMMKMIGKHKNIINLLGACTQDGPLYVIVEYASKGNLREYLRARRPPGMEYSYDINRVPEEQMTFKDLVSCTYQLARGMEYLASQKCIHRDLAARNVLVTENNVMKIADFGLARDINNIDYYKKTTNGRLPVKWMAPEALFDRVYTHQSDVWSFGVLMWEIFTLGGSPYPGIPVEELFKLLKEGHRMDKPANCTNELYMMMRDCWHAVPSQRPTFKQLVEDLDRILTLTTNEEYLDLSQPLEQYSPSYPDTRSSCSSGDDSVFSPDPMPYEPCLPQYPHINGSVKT
FGFR3, sequence (P22607 23-806): as the sequence (P22607 23-806 V555M) above, with M533V counted along it

For `C[C@@H](Oc1ccc2[nH]nc(-c3cnc(N4CCC4)c(C#N)c3)c2c1)c1c(Cl)cncc1Cl` [Example 309, 2-(azetidin-1-yl)-5-[5-[(1R)-1-(3,5-dichloro-4-pyridyl)ethoxy]-1H-indazol-3-yl]pyridine-3-carbonitrile], the dissociation constant (Kd) was greater than 300 nM at FGFR2; 20 to 100 nM on FGFR3 (V555M); 100 to 300 nM on FGFR3; 1 to 20 nM on FGFR4; greater than 300 nM at FGFR1.

Turning to `COc1cc2[nH]nc(-c3ccc(N4CCC4)nc3)c2cc1O[C@H](C)c1c(C)cnnc1C` [Example 310, (R)-3-(6-(azetidin-1-yl)pyridin-3-yl)-5-(1-(3,5-dimethylpyridazin-4-yl)ethoxy)-6-methoxy-1H-indazole], the Kd on FGFR2, at FGFR3 (V555M), on FGFR3, on FGFR4 and at FGFR1 was 1 to 20 nM in each case.

For `COc1cc2[nH]nc(-c3cnc(N4CC[C@H](O)C4)c(C#N)c3)c2cc1O[C@H](C)c1c(C)cnnc1C` [Example 311, 5-(5-((R)-1-(3,5-dimethylpyridazin-4-yl)ethoxy)-6-methoxy-1H-indazol-3-yl)-2-((S)-3-hydroxypyrrolidin-1-yl)nicotinonitrile], the Kd is 20 to 100 nM at FGFR2; 1 to 20 nM on FGFR3 (V555M); 20 to 100 nM at FGFR3; 1 to 20 nM at FGFR4; 20 to 100 nM on FGFR1.

Regarding `Cc1cnnc(C)c1[C@@H](C)Oc1ccc2[nH]nc(-c3cnc(N4CC5CC(C4)N5CC(C)(C)O)c(C#N)c3)c2c1` [Example 312, 5-(5-((R)-1-(3,5-dimethylpyridazin-4-yl)ethoxy)-1H-indazol-3-yl)-2-(6-(2-hydroxy-2-methylpropyl)-3,6-diazabicyclo[3.1.1]heptan-3-yl)nicotinonitrile], the Kd on FGFR2, at FGFR3 (V555M), at FGFR3, on FGFR4 and at FGFR1 was 1 to 20 nM in each case.

On to `Cc1cnnc(C)c1[C@@H](C)Oc1ccc2[nH]nc(-c3cnc(N4CC[C@@H](O)C4)c(C#N)c3)c2c1` [Example 313, 5-(5-((R)-1-(3,5-dimethylpyridazin-4-yl)ethoxy)-1H-indazol-3-yl)-2-((R)-3-hydroxypyrrolidin-1-yl)nicotinonitrile], for which the Kd is 20 to 100 nM at FGFR2; 1 to 20 nM at FGFR3 (V555M); 20 to 100 nM at FGFR3; 1 to 20 nM at FGFR4; 100 to 300 nM on FGFR1.

In the case of `COc1cc2[nH]nc(-c3ccc(N4CC5CC(C4)N5)nc3)c2cc1O[C@H](C)c1c(C)cnnc1C` [Example 314, 3-(5-(5-((R)-1-(3,5-dimethylpyridazin-4-yl)ethoxy)-6-methoxy-1H-indazol-3-yl)pyridin-2-yl)-3,6-diazabicyclo[3.1.1]heptane], the Kd on FGFR2, at FGFR3 (V555M), at FGFR3, on FGFR4 and on FGFR1 was 1 to 20 nM each time.

For `COc1cc2[nH]nc(-c3ccc(N4CCCC4)nc3)c2cc1O[C@H](C)c1c(C)cnnc1C` [Example 315, (R)-5-(1-(3,5-dimethylpyridazin-4-yl)ethoxy)-6-methoxy-3-(6-(pyrrolidin-1-yl)pyridin-3-yl)-1H-indazole], the Kd at FGFR2, at FGFR3 (V555M), at FGFR3, on FGFR4 and on FGFR1 was 1 to 20 nM throughout.

In the case of `COc1cc2[nH]nc(-c3cnc(N4CC[C@H](C(C)(C)O)C4)c(C#N)c3)c2cc1O[C@H](C)c1c(C)cnnc1C` [Example 316, 5-(5-((R)-1-(3,5-dimethylpyridazin-4-yl)ethoxy)-6-methoxy-1H-indazol-3-yl)-2-((S)-3-(2-hydroxypropan-2-yl)pyrrolidin-1-yl)nicotinonitrile], the Kd at FGFR2 fell in the range of 20 to 100 nM; on FGFR3 (V555M) it was 1 to 20 nM; at FGFR3, 1 to 20 nM; at FGFR4, 1 to 20 nM; at FGFR1, 20 to 100 nM.

In the case of `COc1cc2[nH]nc(-c3cnc(N4CC5CC(C4)N5)c(C)c3)c2cc1O[C@H](C)c1c(C)cnnc1C` [Example 317, 3-(5-(5-((R)-1-(3,5-dimethylpyridazin-4-yl)ethoxy)-6-methoxy-1H-indazol-3-yl)-3-methylpyridin-2-yl)-3,6-diazabicyclo[3.1.1]heptane], the equilibrium dissociation constant (Kd) on FGFR2, at FGFR3 (V555M), on FGFR3, at FGFR4 and at FGFR1 was 1 to 20 nM each time.

With `Cc1cnnc(C)c1[C@@H](C)Oc1ccc2[nH]nc(-c3cnc(N4CC(O)C4)c(C#N)c3)c2c1` [Example 318, (R)-5-(5-(1-(3,5-dimethylpyridazin-4-yl)ethoxy)-1H-indazol-3-yl)-2-(3-hydroxyazetidin-1-yl)nicotinonitrile], the Kd at FGFR2 was in the range of 100 to 300 nM; on FGFR3 (V555M), 1 to 20 nM; on FGFR3 it was 20 to 100 nM; on FGFR4, 1 to 20 nM; at FGFR1, 100 to 300 nM.

As for `COc1cc2[nH]nc(-c3cnc(N4CC[C@@H](O)C4)c(C#N)c3)c2cc1O[C@H](C)c1c(C)cnnc1C` [Example 319, 5-(5-((R)-1-(3,5-dimethylpyridazin-4-yl)ethoxy)-6-methoxy-1H-indazol-3-yl)-2-((R)-3-hydroxypyrrolidin-1-yl)nicotinonitrile], the Kd at FGFR2 fell in the range of 20 to 100 nM; at FGFR3 (V555M), 1 to 20 nM; on FGFR3 it was 1 to 20 nM; at FGFR4, 1 to 20 nM; on FGFR1, 20 to 100 nM.

As to `COc1cc2[nH]nc(-c3cnc(N4CC(O)C4)c(C#N)c3)c2cc1O[C@H](C)c1c(C)cnnc1C` [Example 320, (R)-5-(5-(1-(3,5-dimethylpyridazin-4-yl)ethoxy)-6-methoxy-1H-indazol-3-yl)-2-(3-hydroxyazetidin-1-yl)nicotinonitrile], the Kd at FGFR2 was 20 to 100 nM; on FGFR3 (V555M), 1 to 20 nM; on FGFR3, 20 to 100 nM; on FGFR4, 1 to 20 nM; on FGFR1, 20 to 100 nM.

Regarding `COc1cc2[nH]nc(-c3cnc(N4CC[C@@H](C(C)(C)O)C4)c(C#N)c3)c2cc1O[C@H](C)c1c(C)cnnc1C` [Example 321, 5-(5-((R)-1-(3,5-dimethylpyridazin-4-yl)ethoxy)-6-methoxy-1H-indazol-3-yl)-2-((R)-3-(2-hydroxypropan-2-yl)pyrrolidin-1-yl)nicotinonitrile], the Kd on FGFR2 lay in the range of 1 to 20 nM; on FGFR3 (V555M) it was 1 to 20 nM; at FGFR3, 1 to 20 nM; at FGFR4, 1 to 20 nM; at FGFR1 it was 20 to 100 nM.

Take `COc1cc2[nH]nc(-c3cnc(N4CCC4)c(C#N)c3)c2cc1O[C@H](C)c1c(C)cnnc1C` [Example 322, (R)-2-(azetidin-1-yl)-5-(5-(1-(3,5-dimethylpyridazin-4-yl)ethoxy)-6-methoxy-1H-indazol-3-yl)nicotinonitrile]: the Kd lay within 20 to 100 nM at FGFR2; 1 to 20 nM at FGFR3 (V555M); 20 to 100 nM at FGFR3; 1 to 20 nM on FGFR4; 100 to 300 nM at FGFR1.

For the molecule `COc1cc(-c2n[nH]c3ccc(O[C@H](C)c4c(C)cnnc4C)cc23)cnc1N1CC2CC(C1)N2CC(C)(C)O` [Example 323, 1-(3-(5-(5-((R)-1-(3,5-dimethylpyridazin-4-yl)ethoxy)-1H-indazol-3-yl)-3-methoxypyridin-2-yl)-3,6-diazabicyclo[3.1.1]heptan-6-yl)-2-methylpropan-2-ol], the Kd on FGFR2 was greater than 300 nM; at FGFR3 (V555M), 20 to 100 nM; on FGFR3 it was greater than 300 nM; at FGFR4, 1 to 20 nM; at FGFR1, greater than 300 nM.

Consider `COc1cc2[nH]nc(-c3cnc(N4CC5(COC5)C4)c(C#N)c3)c2cc1O[C@H](C)c1c(C)cnnc1C` [Example 324, (R)-5-(5-(1-(3,5-dimethylpyridazin-4-yl)ethoxy)-6-methoxy-1H-indazol-3-yl)-2-(2-oxa-6-azaspiro[3.3]heptan-6-yl)nicotinonitrile], for which the Kd on FGFR2 lay in the range of 20 to 100 nM; on FGFR3 (V555M), 1 to 20 nM; at FGFR3 it was 20 to 100 nM; on FGFR4 it was 1 to 20 nM; on FGFR1 it was 20 to 100 nM.

Turning to `Cc1cnnc(C)c1[C@@H](C)Oc1ccc2[nH]nc(-c3cnc(N4CCN5C(=O)NCC5C4)c(C#N)c3)c2c1` (stereo partly drawn) [Example 325, 5-(5-((R)-1-(3,5-dimethylpyridazin-4-yl)ethoxy)-1H-indazol-3-yl)-2-(3-oxohexahydroimidazo[1,5-a]pyrazin-7(1H)-yl)nicotinonitrile], the Kd at FGFR2 fell in the range of 1 to 20 nM; at FGFR3 (V555M), 1 to 20 nM; at FGFR3 it was 1 to 20 nM; on FGFR4, 1 to 20 nM; on FGFR1, 20 to 100 nM.

`COc1cc2[nH]nc(-c3cnc(N4CC(O)C4)c(C#N)c3)c2cc1O[C@H](C)c1c(Cl)cncc1Cl` [Example 326, 5-[5-[(1R)-1-(3,5-dichloro-4-pyridyl)ethoxy]-6-methoxy-1H-indazol-3-yl]-2-(3-hydroxyazetidin-1-yl)pyridine-3-carbonitrile]: the Kd on FGFR2 lay in the range of 20 to 100 nM; at FGFR3 (V555M), 1 to 20 nM; at FGFR3, 1 to 20 nM; on FGFR4 it was 1 to 20 nM; at FGFR1 it was 20 to 100 nM.

Turning to `COc1cc2[nH]nc(-c3cnc(N4CC[C@H](O)C4)c(C#N)c3)c2cc1O[C@H](C)c1c(Cl)cncc1Cl` [Example 327, 5-[5-[(1R)-1-(3,5-dichloro-4-pyridyl)ethoxy]-6-methoxy-1H-indazol-3-yl]-2-[(3S)-3-hydroxypyrrolidin-1-yl]pyridine-3-carbonitrile], the Kd at FGFR2, at FGFR3 (V555M), on FGFR3, at FGFR4 and at FGFR1 was 1 to 20 nM throughout.
